Test results as given in article PMC3914206.

Tests used:
Assay type in all cases: binding
Parameters in all cases: KINOMEscan: ABL1(F317L)-phosphorylated / KINOMEscan: ABL1(H396P)-nonphosphorylated / KINOMEscan: ABL1(H396P)-phosphorylated / KINOMEscan: ABL1(M351T)-phosphorylated / KINOMEscan: ABL1(T315I)-phosphorylated / KINOMEscan: ABL1-nonphosphorylated / KINOMEscan: ABL1-phosphorylated / KINOMEscan: ACVR2A / KINOMEscan: ACVR2B / KINOMEscan: ADCK3 / KINOMEscan: ADCK4 / KINOMEscan: AKT1 / KINOMEscan: AKT3 / KINOMEscan: ALK / KINOMEscan: ARK5 / KINOMEscan: AURKA / KINOMEscan: AURKC / KINOMEscan: BIKE / KINOMEscan: BMPR1A / KINOMEscan: BMPR1B / KINOMEscan: BMX / KINOMEscan: BRK / KINOMEscan: BRSK1 / KINOMEscan: BRSK2 / KINOMEscan: CAMK1 / KINOMEscan: CAMK1D / KINOMEscan: CAMK1G / KINOMEscan: CAMK2A / KINOMEscan: CAMK2B / KINOMEscan: AAK1 / KINOMEscan: CAMK2D / KINOMEscan: CAMK2G / KINOMEscan: ABL1(F317I)-nonphosphorylated / KINOMEscan: ABL1(F317I)-phosphorylated / KINOMEscan: ABL1(F317L)-nonphosphorylated: unit: % Ctrl
Conditions in all cases: Compound Concentration 10 µM
panel of 442 kinases [1] = target: T1, panel of 442 kinases (Homo sapiens, UniProt P00519, F317L)
T1 construct: purchased KINOMEscan
T1 sequence (P00519 whole entry F317L): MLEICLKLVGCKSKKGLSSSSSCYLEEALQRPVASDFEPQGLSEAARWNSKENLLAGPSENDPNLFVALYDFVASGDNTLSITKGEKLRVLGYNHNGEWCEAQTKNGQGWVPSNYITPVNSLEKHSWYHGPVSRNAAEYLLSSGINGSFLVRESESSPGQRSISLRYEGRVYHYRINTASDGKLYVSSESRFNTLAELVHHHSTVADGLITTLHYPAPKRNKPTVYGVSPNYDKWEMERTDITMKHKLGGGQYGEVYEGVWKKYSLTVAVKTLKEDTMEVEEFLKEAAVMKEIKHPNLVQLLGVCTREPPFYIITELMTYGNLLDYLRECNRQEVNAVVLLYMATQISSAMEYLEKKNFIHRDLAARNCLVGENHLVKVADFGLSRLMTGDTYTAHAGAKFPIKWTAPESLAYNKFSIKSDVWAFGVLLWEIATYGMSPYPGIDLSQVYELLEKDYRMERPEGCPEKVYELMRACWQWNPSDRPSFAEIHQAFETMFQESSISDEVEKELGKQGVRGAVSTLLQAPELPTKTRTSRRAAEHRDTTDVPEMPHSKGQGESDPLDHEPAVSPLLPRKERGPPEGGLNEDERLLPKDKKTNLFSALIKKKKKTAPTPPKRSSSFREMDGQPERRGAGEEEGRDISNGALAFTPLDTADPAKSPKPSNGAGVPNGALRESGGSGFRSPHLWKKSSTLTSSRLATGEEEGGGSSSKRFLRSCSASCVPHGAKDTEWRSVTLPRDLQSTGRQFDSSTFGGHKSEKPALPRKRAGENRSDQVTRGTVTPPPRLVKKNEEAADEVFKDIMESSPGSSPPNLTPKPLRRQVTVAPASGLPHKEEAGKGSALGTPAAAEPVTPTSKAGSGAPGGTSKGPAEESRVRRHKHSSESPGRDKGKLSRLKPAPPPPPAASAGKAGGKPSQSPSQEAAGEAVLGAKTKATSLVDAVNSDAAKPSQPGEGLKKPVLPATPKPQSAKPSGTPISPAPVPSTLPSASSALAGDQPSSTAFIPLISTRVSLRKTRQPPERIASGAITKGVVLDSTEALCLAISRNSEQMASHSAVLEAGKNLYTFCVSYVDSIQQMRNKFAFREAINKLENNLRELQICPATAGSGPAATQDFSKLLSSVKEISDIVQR
Source text: (§1) We assessed the selectivity of members of this scaffold using the KINOMEscan methodology across a near comprehensive panel of 442 kinases [[18,27]].

panel of 442 kinases [2] = target: T2, panel of 442 kinases (Homo sapiens, UniProt P49674)
T2 construct: purchased KINOMEscan
T2 sequence (P49674 whole entry): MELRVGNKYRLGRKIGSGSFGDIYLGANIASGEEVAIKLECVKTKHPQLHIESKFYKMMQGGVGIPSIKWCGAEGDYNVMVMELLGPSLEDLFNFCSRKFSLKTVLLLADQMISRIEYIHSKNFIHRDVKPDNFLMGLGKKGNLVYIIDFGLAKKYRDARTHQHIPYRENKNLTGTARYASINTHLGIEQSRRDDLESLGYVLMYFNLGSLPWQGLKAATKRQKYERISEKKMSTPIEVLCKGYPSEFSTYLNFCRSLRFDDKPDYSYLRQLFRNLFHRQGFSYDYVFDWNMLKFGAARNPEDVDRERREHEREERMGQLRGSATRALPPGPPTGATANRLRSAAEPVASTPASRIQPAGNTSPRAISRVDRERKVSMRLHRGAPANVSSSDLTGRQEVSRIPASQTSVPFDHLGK
Source text: as §1

panel of 442 kinases [3] = target: T3, panel of 442 kinases (Homo sapiens, UniProt Q8NI60)
T3 construct: purchased KINOMEscan
T3 sequence (Q8NI60 163-647): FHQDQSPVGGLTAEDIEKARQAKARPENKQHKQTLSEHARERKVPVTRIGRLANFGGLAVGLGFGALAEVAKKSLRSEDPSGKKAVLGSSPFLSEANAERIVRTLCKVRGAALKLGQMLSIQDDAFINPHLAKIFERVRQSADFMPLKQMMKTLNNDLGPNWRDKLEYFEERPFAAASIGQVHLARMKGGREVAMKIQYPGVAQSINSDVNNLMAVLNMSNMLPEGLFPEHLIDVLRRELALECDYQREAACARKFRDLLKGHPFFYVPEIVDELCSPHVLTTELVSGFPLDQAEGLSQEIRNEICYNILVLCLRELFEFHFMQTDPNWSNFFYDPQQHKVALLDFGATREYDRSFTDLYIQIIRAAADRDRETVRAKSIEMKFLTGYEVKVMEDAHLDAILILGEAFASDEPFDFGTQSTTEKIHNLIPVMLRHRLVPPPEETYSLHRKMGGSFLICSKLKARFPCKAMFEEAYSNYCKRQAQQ
Source text: as §1

panel of 442 kinases [4] = target: T4, panel of 442 kinases (Homo sapiens, UniProt Q9P1W9)
T4 construct: purchased KINOMEscan
T4 sequence (Q9P1W9 whole entry): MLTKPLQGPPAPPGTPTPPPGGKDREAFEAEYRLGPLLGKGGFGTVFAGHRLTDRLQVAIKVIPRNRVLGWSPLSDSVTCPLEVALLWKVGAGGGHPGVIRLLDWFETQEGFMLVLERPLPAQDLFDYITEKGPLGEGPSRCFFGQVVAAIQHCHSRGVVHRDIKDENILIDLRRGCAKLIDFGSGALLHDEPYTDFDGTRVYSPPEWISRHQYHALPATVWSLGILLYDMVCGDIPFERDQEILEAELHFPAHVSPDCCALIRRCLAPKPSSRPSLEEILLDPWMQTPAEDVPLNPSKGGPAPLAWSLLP
Source text: as §1

Row | Structure (SMILES) | KINOMEscan: ABL1(F317L)-nonphosphorylated (panel of 442 kinases [1]) | KINOMEscan: ABL1(F317L)-phosphorylated (panel of 442 kinases [1]) | KINOMEscan: CSNK1E (panel of 442 kinases [2]) | KINOMEscan: ADCK3 (panel of 442 kinases [3]) | KINOMEscan: PIM2 (panel of 442 kinases [4])
1 | COc1cc(C(=O)N2CCC(N3CCN(C)CC3)CC2)ccc1Nc1ncc2c(n1)N(C1CCCC1)c1ccccc1C(=O)N2C [Compound 25, 11-cyclopentyl-2-((2-methoxy-4-(4-(4-methylpiperazin-1-yl)piperidine-1-carbonyl)phenyl)amino)-5-methyl-5H-benzo[e]pyrimido[5,4-b][1,4]diazepin-6(11H)-one] | 15 | 9.1 | 100 | 61 | 100
2 | CCOc1cc(C(=O)N2CCC(N3CCN(C)CC3)CC2)ccc1Nc1ncc2c(n1)N(C1CCCC1)c1ccccc1C(=O)N2C [Compound 26] | 71 | 34 | 100 | 59 | 100
3 | COc1cc(C(=O)N2CCC(N3CCN(C)CC3)CC2)ccc1Nc1ncc2c(n1)N1CCc3cccc(c31)C(=O)N2C [Compound 24] | 23 | 7.8 | 81 | 56 | 85
4 | COc1cc(C(=O)N2CCC(N3CCN(C)CC3)CC2)ccc1Nc1ncc2c(n1)N(C)c1ccccc1C(=O)N2C [15 (LRRK2-IN-1)] | 14 | 0.85 | 95 | 71 | 100
